Experimental data reported in patent US12167995B2, “[((1R,2S,5R)-2-isopropyl-5-methyl-cyclohexanecarbonyl)-amino]-acetic acid isopropyl ester for treatment of chronic cough” (AXALBION SA, priority 2019, dated 2024).
Entries after “also recorded” stand apart in the source; their conditions may differ.

Key:
capsaicin-induced cough = experiment: Capsaicin-induced cough in awake guinea pig; assay type: in vivo
Method: AX-8's antitussive effect was evaluated in a standardized guinea pig model of cough (see, e.g., Brozmanova et al., 2012; Dong et al., 2016). Guinea pigs were placed in a plethysmography chamber and exposed for 10 minutes to nebulized capsaicin solution (0.1 mM) to induce cough. The cough frequency was detected as a transient change in airflow in the chamber and the signal recorded via a pressure transducer and computer. Additionally, the audio-amplified count was also recorded electronically. Coughs were counted for the 10-minute exposure period. The experiment was visually monitored by the investigator. A 5 mg/mL AX-8 solution was prepared by dissolving AX-8 in absolute ethanol at 200 mg/mL and then diluting in a solution of 4 mg/mL of sweet potato powder in saline (i.e., vehicle). The baseline frequency of coughing in response to exposure to capsaicin mist was recorded for the control (vehicle only) and treated (AX-8) group of animals (n=10 animals per group). Seven days later, animals were anesthetized with diethyl ether and a small animal laryngoscope was used to place the tip of a micro sprayer syringe in the oral cavity. Vehicle or AX-8 was administered into the oropharyngeal region at 75 μL per animal (n=10 animals per group). […] Ten minutes after administration, the guinea pigs were exposed to the capsaicin mist and the number of coughs recorded.

[1] = Clinical Trial 2: safety and tolerability in RCC patients; assay type: in vivo, human; details: single 5 mg ODT
Description: Safety assessments consisted of monitoring and recording protocol-defined adverse events (AEs) and serious adverse events (SAEs); vital signs; physical examinations; clinical laboratory assessments; electrocardiograms (ECGs); and other protocol-specified tests that were deemed critical to the safety evaluation of the study drug.

For CC(C)OC(=O)CNC(=O)[C@@H]1C[C@H](C)CC[C@H]1C(C)C [AX-8, [((1R,2S,5R)-2-isopropyl-5-methyl-cyclohexanecarbonyl)-amino]-acetic acid isopropyl ester], the “capsaicin-induced coughs after treatment” value (capsaicin-induced cough; 0.375 mg/animal sprayed in oropharyngeal region 10 min before 0.1 mM capsaicin mist, Baseline (T) 25.0±2.0, n=10, p<0.01) was 9.0±2.0 coughs/10 min, the “effect on capsaicin-induced cough” value (capsaicin-induced cough; 5 mg/mL solution, 75 μL per animal) was “inhibited significantly capsaicin-induced cough; also recorded: inhibits cough induced by an irritant” and the compound-related adverse effects [1] was “No compound-related adverse effects were observed”.
